Measured values as given in article PMC8129716 (CPT: Pharmacometrics & Systems Pharmacology, 2021).

Tests used:
CYP3A [1] = assay: PBPK simulation of zanubrutinib as perpetrator, midazolam; design: species or system human
CYP3A [2] = conditions: midazolam 2 mg with/without zanubrutinib 160 mg b.i.d.; cited from earlier work
CYP2C9 [3] = assay: PBPK simulation of zanubrutinib as perpetrator, warfarin; design: species or system human
CYP2C9 [4] = conditions: warfarin 10 mg with/without zanubrutinib; cited from earlier work
CYP3A [5] = conditions: cited from earlier work
CYP2C19 [6] = assay: PBPK simulation of zanubrutinib as perpetrator, omeprazole; design: species or system human
CYP2C19 [7] = conditions: omeprazole 20 mg with/without zanubrutinib; cited from earlier work
CYP3A [8] = conditions: co-administration of itraconazole; cited from earlier work

Cc1ncc2n1-c1ccc(Cl)cc1C(c1ccccc1F)=NC2 [midazolam, reference compound]
midazolam AUC ratio observed/predicted (CYP3A [1]): 1.02
midazolam AUC ratio, observed (90% CI) (CYP3A [2]): 0.53 (0.48–0.57)
midazolam Cmax ratio, observed (90% CI) (CYP3A [2]): 0.70 (0.63–0.78)

CC(=O)CC(c1ccccc1)c1c(O)c2ccccc2oc1=O (stereo not drawn) [warfarin]
warfarin AUC ratio observed/predicted (CYP2C9 [3]): 1.03
warfarin Cmax ratio observed/predicted (CYP2C9 [3]): 0.95
warfarin AUC ratio, observed (90% CI) (CYP2C9 [4]): 1.00 (0.98–1.03)
warfarin Cmax ratio, observed (90% CI) (CYP2C9 [4]): 0.95 (0.87–1.04)

NC(=O)N1c2ccccc2C=Cc2ccccc21 [Carbamazepine]
simulated ribociclib AUC ratio (with/without inducer) (CYP3A [5]): 0.48

COc1ccc2[nH]c([S+]([O-])Cc3ncc(C)c(OC)c3C)nc2c1 (stereo not drawn) [omeprazole]
omeprazole AUC ratio observed/predicted (CYP2C19 [6]): 0.67
omeprazole Cmax ratio observed/predicted (CYP2C19 [6]): 0.81
omeprazole AUC ratio, observed (90% CI) (CYP2C19 [7]): 0.63 (0.5–0.70)
omeprazole Cmax ratio, observed (90% CI) (CYP2C19 [7]): 0.79 (0.65–0.97)

O=C1Nc2ccc(Cl)cc2[C@@](C#CC2CC2)(C(F)(F)F)O1 [Efavirenz]
simulated ribociclib AUC ratio (with/without inducer) (CYP3A [5]): 0.40

CCC(C)n1ncn(-c2ccc(N3CCN(c4ccc(OCC5COC(Cn6cncn6)(c6ccc(Cl)cc6Cl)O5)cc4)CC3)cc2)c1=O (stereo not drawn) [itraconazole]
increase of zanubrutinib AUC0-t (CYP3A [8]): 3.9 fold
increase of zanubrutinib Cmax (CYP3A [8]): 2.6 fold
